Experimental data: US5124326A, “Pharmaceutically efficacious pteridine derivatives” (Roehm GmbH Chemische Fabrik, priority 1989, dated 1992)
Values after ≈ are worked out from the molar mass of the structure shown. Read-outs that look alike come from different tables or passages of the source.

Assays:
[1] = resorption rate from renal recovery following p.o. and i.v. administration; assay type: in vivo, Male Wister rats; conditions: rat, urine, po; quotient of urinary recovery p.o./i.v.; rats
Method: Male Wister rats, weighing approximately 130 g, were used in the tests. Food had been withdrawn from the rats for 18 hours. Immediately before the intravenous administration of the test substance, they were fed orally a quantity of 20 ml/kg of 0.9% NaCl solution. […] Under a slight anesthesia, administration was by the caudal vein. Generally six experimental animals were used per test. The peroral administration was by means of probang in the gastrointestinal region. The substances were administered in a mixture comprising Tylose® and physiological NaCl solution, which serves simultaneously as the hydration agent ([…]). The animals were placed individually into diuresis cages and urine was collected after 2.5 or 3 or 6 hours. The electrolytes (Na^+ K^+, Mg^+2) were determined by means of flame photometry and by means of atomic absorption measurement with the FL6 automatic electrolyte equipment from Zeiss/Oberkochen. The renal recovery of the test substances serves as a means of measuring resorption following oral administration. The resorption rate is determined from the quotients of the recovery rates following peroral (p.o.) and intravenous (i.v.) administration, as given in percent. The recovery rate notes the renally excreted quantity based on the medicated quantity of the active substances. The concentration of the test substances in the urine of the animals is determined in accordance with thin-layer chromatographic separation by means o spectrophotometry.

urine volume, Na^+, K^+ = assay: diuresis test in rats (urine volume, Na+, K+ excretion; dose/response, ED50); assay type: in vivo, Male Wister rats; conditions: for ED50: Rattus norvegicus; for ED50 / Na^+/K^+ quotient i.v. / Na^+/K^+ quotient p.o.: rats
Method: The compounds of formula I and their acid addition salts, with physiologically tolerable acids are quite suitable for peroral and intravenous medication. The diuresis tests were conducted according to the following method. Diuresis Tests/Method Male Wister rats, weighing approximately 130 g, were used in the tests. Food had been withdrawn from the rats for 18 hours. Immediately before the intravenous administration of the test substance, they were fed orally a quantity of 20 ml/kg of 0.9% NaCl solution. […] Under a slight anesthesia, administration was by the caudal vein. Generally six experimental animals were used per test. The peroral administration was by means of probang in the gastrointestinal region. The substances were administered in a mixture comprising Tylose® and physiological NaCl solution, which serves simultaneously as the hydration agent ([…]). The animals were placed individually into diuresis cages and urine was collected after 2.5 or 3 or 6 hours. The electrolytes (Na^+ K^+, Mg^+2) were determined by means of flame photometry and by means of atomic absorption measurement with the FL6 automatic electrolyte equipment from Zeiss/Oberkochen. Curves for dose/response correlations were obtained with the aid of non-linear regression analysis with the NONLIN computer program by C. Daniel and F. S. Wood in "Fitting Equations to Data", J. Wiley & Sons, New York, 1980. Thus, the characteristic value ED50 (=potency) applied to determine the diuretic efficacy is defined as the quantity of active substance per kg of body weight, which is necessary for the semi-maximum effect.

[2] = solubility in isotonic phosphate buffer pH 7.4; assay type: physicochemical; conditions: for solubility: aqueous buffer
[3] = distribution coefficient log P; assay type: physicochemical; conditions: for logD: read-out: lipophilicity log P; for logP: from the preparation examples
metabolization = conditions: in vivo
[4] = iv, duration 2.5 h, read-out: ED50 (potency), urine K^+
[5] = iv, duration 2.5 h, read-out: ED50 (potency), urine Na^+
[6] = iv, duration 2.5 h, read-out: ED50 (potency), urine volume
[7] = iv, duration 6 h, read-out: ED50 (potency), urine K^+
[8] = iv, duration 6 h, read-out: ED50 (potency), urine Na^+
[9] = iv, duration 6 h, read-out: ED50 (potency), urine volume
[10] = po, duration 3 h, read-out: ED50 (potency), urine K^+
[11] = po, duration 3 h, read-out: ED50 (potency), urine Na^+
[12] = po, duration 3 h, read-out: ED50 (potency), urine volume
[13] = po, duration 6 h, read-out: ED50 (potency), urine K^+
[14] = po, duration 6 h, read-out: ED50 (potency), urine Na^+
[15] = po, duration 6 h, read-out: ED50 (potency), urine volume
[16] = isotonic phosphate buffer, pH = 7.4, read-out: solubility
[17] = isotonic phosphate buffer pH 7.4, read-out: solubility in isotonic phosphate buffer

Fa [1] [%]	solubility [2, 16] [µg/mL]	logD ([3]; pH = 7.4)	solubility [2, 17] [µg/mL]	Structure (SMILES)	ED50 (urine volume, Na^+, K^+; [4]) [µmol/kg]	ED50 (urine volume, Na^+, K^+; [5]) [µmol/kg]	ED50 (urine volume, Na^+, K^+; [6]) [µmol/kg]	ED50 (urine volume, Na^+, K^+; [7]) [µmol/kg]	ED50 (urine volume, Na^+, K^+; [8]) [µmol/kg]	ED50 (urine volume, Na^+, K^+; [9]) [µmol/kg]	Na^+/K^+ quotient i.v. (urine volume, Na^+, K^+)	Na^+/K^+ quotient p.o. (urine volume, Na^+, K^+)	also measured
~80	21 (≈ 82.9 µM)	–	–	Nc1nc(N)c2nc(-c3ccccc3)c(N)nc2n1 [Triamterene, 2,4,7-triamino-6-phenylpteridine, reference compound]	11.2	2.38	13.9	9.79	10.6	10.6	8	6	ED50 (urine volume, Na^+, K^+; [10]): 3.38 µmol/kg; ED50 (urine volume, Na^+, K^+; [11]): 6.17 µmol/kg; ED50 (urine volume, Na^+, K^+; [12]): 6.4 µmol/kg; ED50 (urine volume, Na^+, K^+; [13]): 8.39 µmol/kg; ED50 (urine volume, Na^+, K^+; [14]): 5.06 µmol/kg; ED50 (urine volume, Na^+, K^+; [15]): 6.57 µmol/kg; lipophilicity log P ([3]; pH = 7.4): 1.26
11	580 (≈ 1870 µM)	-0.36	–	CN(C)Cc1ccc(-c2nc3c(N)nc(N)nc3nc2N)cc1 [compound IA, 2,4,7-Triamino-6-[4-(dimethylaminomethyl)phenyl]pteridine]	–	–	–	–	–	–	9	18	–
< 1	–	2.7	1.1 (≈ 2.5 µM)	Nc1nc(N)c2nc(-c3ccc(CN4CCC(Cc5ccccc5)CC4)cc3)c(N)nc2n1 [compound IB, 2,4,7-Triamino-6-[4-(4-benzylpiperidinomethyl)phenyl]pteridine]	–	–	–	–	–	–	17	4	–
–	1.9 (≈ 4.58 µM)	3.2	–	CC(C)N(Cc1ccccc1)Cc1ccc(-c2nc3c(N)nc(N)nc3nc2N)cc1 [compound IC, 2,4,7-Triamino-6-[4-(N-benzyl-N-isopropylaminomethyl)phenyl]pteridien]	–	–	–	–	–	–	7	13	metabolization (metabolization): is metabolized quantitatively
19	76 (≈ 217 µM)	0.2	–	Nc1nc(N)c2nc(-c3ccc(CN4CCCCC4)cc3)c(N)nc2n1 [compound ID, 2,4,7-Triamino-6-[4-(piperidinomethyl)phenyl]pteridine]	–	–	–	–	–	–	37	7	–
31	139 (≈ 381 µM)	0.89	–	CC1CCN(Cc2ccc(-c3nc4c(N)nc(N)nc4nc3N)cc2)CC1 [compound IE, 2,4,7-Triamino-6-[4-(4-methylpiperidinomethyl)phenyl]pteridine]	5.4	3.13	2.65	5.9	12.7	8.24	27	14	metabolization (metabolization): No metabolization; ED50 (urine volume, Na^+, K^+; [10]): 2.16 µmol/kg; ED50 (urine volume, Na^+, K^+; [11]): 9.49 µmol/kg; ED50 (urine volume, Na^+, K^+; [12]): 11.8 µmol/kg; ED50 (urine volume, Na^+, K^+; [13]): 2.41 µmol/kg; ED50 (urine volume, Na^+, K^+; [14]): 12.7 µmol/kg; ED50 (urine volume, Na^+, K^+; [15]): 14.8 µmol/kg; potassium-saving potency in comparison to Triamterene (urine volume, Na^+, K^+; following peroral administration, vs Triamterene): higher potassium-saving potency; increased solubility in comparison to Triamterene ([2]; pH 7.4 in phosphate buffer, vs Triamterene): 6.5 fold
33	25 (≈ 66.1 µM)	0.68	–	CC1CCCC(C)N1Cc1ccc(-c2nc3c(N)nc(N)nc3nc2N)cc1 (stereo not drawn) [compound IF, 2,4,7-Triamino-6-[4-(2,6-dimethylpiperidinomehyl)phenyl]pteridine]	–	–	–	–	–	–	21	15	–
23	13 (≈ 34.3 µM)	1.74	–	CC1CC(C)CN(Cc2ccc(-c3nc4c(N)nc(N)nc4nc3N)cc2)C1 (stereo not drawn) [compound IG, 2,4,7-Triamino-6-[4-(3,5-dimethylpiperidinomethyl)phenyl]pteridine]	–	–	–	–	–	–	39	7	–
3	–	-0.6	2000 (≈ 5910 µM)	CN(C)CCCc1ccc(-c2nc3c(N)nc(N)nc3nc2N)cc1 [compound IH, 2,4,7-Triamino-6-[40(3-dimethylaminopropyl)phenyl]pteridine]	1.41	1.44	1.23	1.3	1.83	1.7	12	7	logP [3]: -0.6
4	–	-0.59	2200 (≈ 6780 µM)	CN(C)CCc1ccc(-c2nc3c(N)nc(N)nc3nc2N)cc1 [compound IJ, 2,4,7-Triamino-6-[4-(2-dimethylaminoethyl)phenyl]pteridine]	1.04	1.63	2.36	2.6	1.64	2.61	10	6	logP [3]: -0.59
3	1500 (≈ 3690 µM)	0.04	–	CC1CCCC(C)N1CCCc1ccc(-c2nc3c(N)nc(N)nc3nc2N)cc1 (stereo not drawn) [compound IL, 2,4,7-Triamino-6-[4-(3-(2,6-dimethylpiperidino)propyl)phenyl]pteridine]	–	–	–	–	–	–	170	8	–
7	–	1.18	135 (≈ 332 µM)	CC1CC(C)CN(CCCc2ccc(-c3nc4c(N)nc(N)nc4nc3N)cc2)C1 (stereo not drawn) [compound IM, 2,4,7-Triamino-6-[4-(3-(3,5-dimethylpiperidino)propyl)phenyl]pteridine]	–	–	–	–	–	–	128	27	logP [3]: 1.18
